Assay results from US6596257B2, “Detection and visualization of neoplastic tissues and other tissues” (Prolume, Ltd., priority 1996, dated 2003).

Assays:
[1] = format: physicochemical
Excerpt: Coelenterazine is not terribly soluble in non-irritant vehicles. Coelenterazine is soluble to at least to a concentration of 200 micrograms/mL in a solution of 2% (w/v) PEG 400 containing about 0.8% (w/v) NaCl. Although this solution is slightly hypertonic, it is not an irritant for vehicle purposes.

mice = assay: Repeated administration toxicology: gross signs of toxicity in behavior; format: in vivo, mouse; conditions: 1 mg/kg i.p., daily administration for three days, n=6
Excerpt: […] Mice are examined over the course of the study for any gross signs of toxicity as evidenced in their behavior. At the end of the one-week period, blood which is collected by cardiac puncture immediately prior to sacrifice. Animals are sacrificed and ten different tissue samples are removed post mortem from each animal. Isolated tissues are fixed, stained, blocked and sectioned. The pathology of the tissue samples will be analyzed and the toxicology data are compiled.

## coelenterazine
[1]
  solubility (soluble to at least a concentration of): ≥ 200 micrograms/mL
mice
  gross behavior changes: no gross behavior changes
